Here are results for twelve compounds from US7109216B2 (priority 2001, dated 2006).

Where two headings read alike, the source gives them in different places.

The target of series [1] is human cannabinoid CB1 receptor (Homo sapiens, UniProt P21554). Briefly: biochemical. It is filed as binding. Also noted: expressed in transfected cells; host or cells: Chinese hamster ovary (CHO) cells, membrane preparation. Conditions: [3H]CP-55,940 radioligand, CHO cell membranes stably transfected with human CB1. The procedure:
After incubation of a freshly prepared cell membrane preparation with the [^3H]-ligand, with or without addition of compounds of the invention, separation of bound and free ligand was performed by filtration over glassfiber filters. Radioactivity on the filter was measured by liquid scintillation counting.

human cannabinoid CB1 receptor, sequence (P21554 whole entry): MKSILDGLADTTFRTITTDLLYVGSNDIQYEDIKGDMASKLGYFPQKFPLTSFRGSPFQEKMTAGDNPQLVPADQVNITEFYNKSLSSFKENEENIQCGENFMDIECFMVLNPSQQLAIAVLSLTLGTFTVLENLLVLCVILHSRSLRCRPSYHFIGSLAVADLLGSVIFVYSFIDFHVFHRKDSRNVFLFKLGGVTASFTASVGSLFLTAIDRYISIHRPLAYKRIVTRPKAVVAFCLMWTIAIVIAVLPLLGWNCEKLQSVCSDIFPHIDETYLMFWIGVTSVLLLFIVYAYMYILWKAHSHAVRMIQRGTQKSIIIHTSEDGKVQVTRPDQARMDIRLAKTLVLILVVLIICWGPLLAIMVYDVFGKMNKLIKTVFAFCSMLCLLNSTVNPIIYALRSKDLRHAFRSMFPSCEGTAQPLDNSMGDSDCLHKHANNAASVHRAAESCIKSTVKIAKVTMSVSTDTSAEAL

`O=C(NN1CCCCC1)c1cn(-c2ccc(F)cc2)c(-c2ccc(Cl)cc2Cl)n1` [Example 31, 2-(2,4-Dichlorophenyl)-1-(4-fluorophenyl)-N-(piperidin-1-yl)-1H-imidazole-4-carboxamide] came in with a melting point of 175 to 176 °C. Also, the Ki in series [1] (read-out: hCB1 pKi (converted)) is 200 nM.

`O=C(NC1CCCCC1)c1cn(-c2ccc(F)cc2)c(-c2ccc(Cl)cc2Cl)n1` [Example 32, N-Cyclohexyl-2-(2,4-dichlorophenyl)-1-(4-fluorophenyl)-1H-imidazole-4-carboxamide] yielded a melting point of 184 to 185 °C. The same compound gave a Ki in series [1] (hCB1 pKi) of 25.1 nM.

`O=C(NC1CCCCC1)c1cn(-c2ccc(Cl)cc2)c(-c2ccc(Cl)cc2F)n1` [Example 33, N-Cyclohexyl-2-(2-fluoro-4-chlorophenyl)-1-(4-chlorophenyl)-1H-imidazole-4-carboxamide] came in with a melting point of 157 to 159 °C. Also, the Ki in series [1] (read-out: hCB1 pKi (converted)) was 501 nM.

As to `COc1ccc(-n2cc(C(=O)NN3CCCCC3)nc2-c2ccc(Cl)cc2Cl)cc1` [Example 35, 2-(2,4-Dichlorophenyl)-1-(4-methoxyphenyl)-N-(piperidin-1-yl)-1H-imidazole-4-carboxamide], the melting point was in the range of 178 to 179 °C. The compound further gave a Ki in series [1] (hCB1 pKi) of 50.1 nM.

On to `Cc1c(C(=O)NC2CCCCC2)nc(-c2ccc(Cl)cc2Cl)n1-c1ccc(C(F)(F)F)cc1` [Example 47, N-Cyclohexyl-2-(2,4-dichlorophenyl)-5-methyl-1-(4-(trifluoromethyl)phenyl)-1H-imidazole-4-carboxamide], for which the melting point is 178 to 179 °C. For the same compound, the Ki in series [1] (read-out: hCB1 pKi (converted)) is 158 nM.

`COc1ccc(-n2c(-c3ccc(Cl)cc3Cl)nc(C(=O)NC3CCCCC3)c2C)cc1` [Example 49, N-(1-cyclohexyl)-2-(2,4-dichlorophenyl)-5-methyl-1-(4-methoxyphenyl)-1H-imidazole-4-carboxamide] came in with a melting point of 160 to 161 °C. Further, the Ki in series [1] (read-out: hCB1 pKi (converted)) is 126 nM.

The compound `Cc1c(C(=O)NCc2ccc(F)cc2)nc(-c2ccc(Cl)cc2Cl)n1-c1ccc(Cl)cn1` [Example 56, 1-(5-Chloropyridin-2-yl)-2-(2,4-dichlorophenyl)-N-(4-fluorobenzyl)-5-methyl-1H-imidazole-4-carboxamide] yielded a melting point of 123 to 126 °C. For the same compound, in series [1] (read-out: hCB1 pKi (converted)), the Ki is 158 nM.

Regarding `Cc1c(C(=O)NN2CCCCC2)nc(-c2ccc(Cl)cc2C(F)(F)F)n1-c1ccc(Cl)cc1` [Example 58, 1-(4-Chlorophenyl)-5-methyl-N-(piperidin-1-yl)-2-(2-trifluoromethyl-4-chlorophenyl)-1H-imidazole-4-carboxamide], the melting point turned out to be 165 °C. For the same compound, the Ki in series [1] (read-out: hCB1 pKi (converted)) is 200 nM.

Consider `CCCCCNC(=O)c1nc(-c2ccc(Cl)cc2OC)n(-c2ccc(Cl)cc2)c1C` [Example 59, 1-(4-Chlorophenyl)-2-(2-methoxy-4-chlorophenyl)-5-methyl-N-(n-pentyl)-1H-imidazole-4-carboxamide], for which the melting point was found to be 131 °C. In series [1] (hCB1 pKi), this compound gave a Ki of 501 nM.

With `Cc1c(C(=O)NN2CCCCC2)nc(-c2ccc(Cl)cc2F)n1-c1ccc(Cl)cc1` [Example 66, 1-(4-Chlorophenyl)-2-(2-fluoro-4-chlorophenyl)-5-methyl-N-(piperidin-1-yl)-1H-imidazole-4-carboxamide], the melting point was found to be 195 °C. Moreover, the Ki in series [1] (read-out: hCB1 pKi (converted)) is 501 nM.

As for `CCCCCNC(=O)c1nc(-c2ccc(Cl)cc2F)n(-c2ccc(Cl)cc2)c1C` [Example 67, 1-(4-Chlorophenyl)-2-(2-fluoro-4-chlorophenyl)-5-methyl-N-(n-pentyl)-1H-imidazole-4-carboxamide], the melting point turned out to be 115 °C. Moreover, the Ki in series [1] (hCB1 pKi) is 398 nM.

`Cc1c(C(=O)NC2CCCCC2)nc(-c2ccc(Cl)cc2F)n1-c1ccc(Cl)cc1` [Example 68, 1-(4-Chlorophenyl)-N-(cyclohexyl)-2-(2-fluoro-4-chlorophenyl)-5-methyl-1H-imidazole-4-carboxamide]: the melting point was determined as 188 °C. Besides, the Ki in series [1] (hCB1 pKi) was 200 nM.

By melting point is commonly meant the temperature of the solid-liquid transition.
